Assay results published in publication PMC11449324, “Functional comparison of human and murine equilibrative nucleobase transporter 1” (PLOS ONE, 2024).

What was measured:
[1] = target: T1, endogenous ENBT1 expressed in L1210 cells (Mus musculus, UniProt A2AVZ9); assay: [3H]6-MP uptake in L1210 cells; assay type: cell-based, murine; conditions: 30 μM [3H]6-MP
T1 construct: MOLT-4 cells express the SLC43A3 transcript and L1210 cells express the slc43a3 transcript; host or cells: L1210
T1 sequence (A2AVZ9 1-502): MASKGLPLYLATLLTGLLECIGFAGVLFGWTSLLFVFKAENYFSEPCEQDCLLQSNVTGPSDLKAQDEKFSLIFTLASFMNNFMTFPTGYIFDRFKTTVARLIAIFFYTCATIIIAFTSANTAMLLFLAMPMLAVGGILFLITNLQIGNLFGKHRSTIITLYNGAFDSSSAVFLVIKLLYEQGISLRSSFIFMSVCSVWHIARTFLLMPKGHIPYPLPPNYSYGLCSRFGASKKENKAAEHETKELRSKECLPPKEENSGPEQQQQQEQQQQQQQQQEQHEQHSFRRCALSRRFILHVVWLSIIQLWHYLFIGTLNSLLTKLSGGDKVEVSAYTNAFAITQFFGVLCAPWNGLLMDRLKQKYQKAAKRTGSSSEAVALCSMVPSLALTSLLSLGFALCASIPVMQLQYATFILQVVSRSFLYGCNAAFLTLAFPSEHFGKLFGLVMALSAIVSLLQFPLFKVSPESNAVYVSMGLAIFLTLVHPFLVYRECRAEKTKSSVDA
Protocol: (§1) Harvested cells were suspended in nominally sodium-free N-methyl-D-glucamine (NMG) buffer (140 mM NMG, 5 mM KCl, 4.2 mM KHCO3, 0.36 mM K2HPO4, 0.44 mM KH2PO4, 0.5 mM MgCl2, 1.3 mM CaCl2, 10 mM HEPES, pH 7.4), to minimize potential contribution of sodium-dependent concentrative nucleoside transporter-mediated uptake. Additionally, cells were incubated for 15 minutes at room temperature with 10 μM dipyridamole (DY), an equilibrative nucleoside transporter (ENT) inhibitor, to block equilibrative nucleoside transporter–mediated uptake. The substrate uptake assay was initiated by adding 250 μL cell suspension to 250 μL [^3H] labeled substrate, layered over 21:4 silicone:mineral oil (200 μL) in 1.5 mL microcentrifuge tubes (conducted at room temperature). […] This is the minimum incubation time achievable with this oil-stop technique, and it was found in previous studies that these short incubation times were necessary to assess the kinetics of this transporter. […] The resulting cell pellet was digested in 250 μL 1 M NaOH overnight (~16 hours), with 220 μL aliquots of digested cells assessed for radioactive content using standard liquid scintillation counting techniques in a Beckman Coulter LS6500 scintillation system (Brea, CA).
(§2) In transfected-HEK293 cell lines, total uptake was defined as uptake of radiolabeled substrate in cells overexpressing recombinant hENBT1 or mENBT1. […] ENBT1-mediated uptake was calculated as total uptake minus the non-mediated uptake.
(§3) Cell water volume (μL) was estimated by incubating cells with ^3H2O for 3 minutes, centrifuging the cells through the oil layer at ~10,000 g, assessing 100 μL of the supernatant for radioactive content, and then processing as described above. Total cellular water volume was determined from the ratio of the decays per minute of the cell pellet, to the decays per minute of the supernatant, allowing for inter-experimental normalization via calculation of picomoles of substrate accumulated per microliter of cell-associated water.

[2] = target: T2, endogenous ENBT1 expressed in MOLT-4 cells (Homo sapiens, UniProt Q8NBI5); assay: [3H]6-MP uptake in MOLT-4 cells; assay type: cell-based; conditions: 30 μM [3H]6-MP
T2 construct: MOLT-4 cells express the SLC43A3 transcript and L1210 cells express the slc43a3 transcript; host or cells: MOLT-4
T2 sequence (Q8NBI5 1-491): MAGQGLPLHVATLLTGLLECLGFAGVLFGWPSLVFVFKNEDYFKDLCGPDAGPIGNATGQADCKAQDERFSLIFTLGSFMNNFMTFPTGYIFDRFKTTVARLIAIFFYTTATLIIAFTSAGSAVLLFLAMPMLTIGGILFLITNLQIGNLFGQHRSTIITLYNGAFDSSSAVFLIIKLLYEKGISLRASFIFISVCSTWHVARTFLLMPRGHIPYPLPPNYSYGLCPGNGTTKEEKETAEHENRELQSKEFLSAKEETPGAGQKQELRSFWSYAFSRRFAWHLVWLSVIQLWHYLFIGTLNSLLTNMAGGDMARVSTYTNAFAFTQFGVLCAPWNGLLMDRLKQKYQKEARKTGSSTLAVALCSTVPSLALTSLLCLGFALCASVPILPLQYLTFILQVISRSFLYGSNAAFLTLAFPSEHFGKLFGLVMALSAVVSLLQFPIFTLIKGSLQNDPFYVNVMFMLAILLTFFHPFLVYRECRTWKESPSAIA
Protocol: as §1, §2, §3

Row | Compound | k value of time-dependent uptake [1] | uptake plateau [1] | k value of time-dependent uptake [2] | uptake plateau [2] | effect on uptake of [3H]6-MP ([1]; 5 mM adenine) | effect on uptake of [3H]6-MP ([2]; 5 mM adenine)
1 | Sc1ncnc2nc[nH]c12 [6-MP, 6-Mercaptopurine] | 0.22 ± 0.05 s⁻¹ | roughly 30 pmol/μL | 0.34 ± 0.09 s⁻¹ | roughly 30 pmol/μL | – | –
2 | Nc1ncnc2[nH]cnc12 [adenine, Adenine] | – | – | – | – | significantly inhibited | significantly inhibited
